Experimental data published in ChEMBL document CHEMBL1159298, “Leonticins A-C, three octasaccharide saponins from Leontice kiangnanensis” (J Nat Prod, 1996).
Activity calls are given as the source filed them. The rule behind the calls is not given here.

What follows are compounds tested on KB (assay: Cytotoxicity against human KB cells at 4 ug/ml).
Format: functional, cell-based
For `C[C@@H]1O[C@@H](O[C@H]2CC[C@]3(C)[C@H]4CC=C5[C@@H]6CC(C)(C)CC[C@]6(C(=O)O)CC[C@@]5(C)[C@]4(C)CC[C@H]3C2(C)C)[C@H](O[C@@H]2O[C@H](CO)[C@@H](O)[C@H](O)[C@H]2O)[C@H](O[C@@H]2O[C@H](CO)[C@@H](O[C@@H]3O[C@H](CO)[C@H](O)[C@H](O[C@@H]4OC[C@@H](O)[C@H](O)[C@H]4O)[C@H]3O)[C@H](O)[C@H]2O)[C@H]1O`, the Activity was “inactive”.
In the case of `C[C@@H]1O[C@@H](O[C@H]2[C@H](O)[C@@H](O)[C@H](O[C@H]3[C@H](O)[C@@H](O)[C@H](OC(=O)[C@]45CCC(C)(C)C[C@H]4C4=CC[C@@H]6[C@@]7(C)CC[C@H](O[C@@H]8O[C@@H](C)[C@H](O)[C@@H](O[C@@H]9O[C@H](CO)[C@@H](O[C@@H]%10O[C@H](CO)[C@H](O)[C@H](O[C@@H]%11OC[C@@H](O)[C@H](O)[C@H]%11O)[C@H]%10O)[C@H](O)[C@H]9O)[C@H]8O[C@@H]8O[C@H](CO)[C@@H](O)[C@H](O)[C@H]8O)C(C)(C)[C@@H]7CC[C@@]6(C)[C@]4(C)CC5)O[C@@H]3CO)O[C@@H]2CO)[C@H](O)[C@H](O)[C@H]1O`, the Activity is reported as “inactive”.
For `C[C@@H]1O[C@@H](O[C@H]2CC[C@@]3(C)[C@@H](CC[C@]4(C)[C@@H]3CC=C3[C@@H]5CC(C)(C)CC[C@]5(C(=O)O)CC[C@]34C)[C@]2(C)CO)[C@H](O[C@@H]2O[C@H](CO)[C@@H](O)[C@H](O)[C@H]2O)[C@H](O)[C@H]1O`, the Activity was “inactive”.
For `C[C@@H]1O[C@@H](O[C@H]2[C@H](O)[C@@H](O)[C@H](O[C@H]3[C@H](O)[C@@H](O)[C@H](OC(=O)[C@]45CCC(C)(C)C[C@H]4C4=CC[C@@H]6[C@@]7(C)CC[C@H](O[C@@H]8O[C@@H](C)[C@H](O)[C@@H](O[C@@H]9O[C@H](CO)[C@@H](O[C@@H]%10O[C@H](CO)[C@H](O)[C@H](O[C@@H]%11OC[C@@H](O)[C@H](O)[C@H]%11O)[C@H]%10O)[C@H](O)[C@H]9O)[C@H]8O[C@@H]8O[C@H](CO)[C@@H](O)[C@H](O)[C@H]8O)C(C)(C)[C@@H]7CC[C@@]6(C)[C@]4(C)C[C@H]5O)O[C@@H]3CO)O[C@@H]2CO)[C@H](O)[C@H](O)[C@H]1O`, the Activity was “inactive”.
For `C[C@@H]1O[C@@H](O[C@H]2CC[C@]3(C)[C@H]4CC=C5[C@@H]6CC(C)(C)CC[C@]6(C(=O)O)[C@H](O)C[C@@]5(C)[C@]4(C)CC[C@H]3C2(C)C)[C@H](O[C@@H]2O[C@H](CO)[C@@H](O)[C@H](O)[C@H]2O)[C@H](O[C@@H]2O[C@H](CO)[C@@H](O[C@@H]3O[C@H](CO)[C@H](O)[C@H](O[C@@H]4OC[C@@H](O)[C@H](O)[C@H]4O)[C@H]3O)[C@H](O)[C@H]2O)[C@H]1O`, the Activity was “inactive”.
With `C[C@@H]1O[C@@H](O[C@H]2[C@H](O)[C@@H](O)[C@H](O[C@H]3[C@H](O)[C@@H](O)[C@H](O[C@@H]4[C@@H](O)[C@@H](O)[C@H](O[C@H]5[C@H](O)[C@@H](O)[C@H](O[C@H]6[C@H](O)[C@@H](O)[C@H](OC(=O)[C@]78CCC(C)(C)C[C@H]7C7=CC[C@@H]9[C@@]%10(C)CC[C@H](O[C@@H]%11O[C@@H](C)[C@H](O)[C@@H](O)[C@H]%11O[C@@H]%11O[C@H](CO)[C@@H](O)[C@H](O)[C@H]%11O)[C@@](C)(CO)[C@@H]%10CC[C@@]9(C)[C@]7(C)CC8)O[C@@H]6CO)O[C@@H]5CO)O[C@H]4C)O[C@@H]3CO)O[C@@H]2CO)[C@H](O)[C@H](O)[C@H]1O` the Activity was “inactive”.
